Reference: patent US9283280B2, “Compositions for drug administration” (Aegis Therapeutics, LLC, priority 2008, dated 2016)

How the values were obtained:
human nasal epithelium = conditions: in vivo
blood glucose = assay: Intranasal insulin in […] TDM, anesthesia-induced hyperglycemia model; format: in vivo, mouse; conditions: intranasal insulin alone, minus […] TDM
Text: Intranasal administration of drugs or agents are possible in animal models e.g. mice and rats, although the nasal opening in is very small. In the experiments and results described herein, an anesthesia-induced hyperglycemia model was used (described in Examples above). Hyperglycemic animals were induced by an intraperitoneal (IP) injection containing xylazine-ketamine and blood glucose levels were monitored over a period of time. Immediately after the xylazine-ketamine injection, there was an increase in the blood glucose levels as shown in FIG. 2 (closed dark circles), and blood glucose levels were about 450 mg/dl. […] Blood glucose levels peak to about 482 mg/dl by 30 minutes after the xylazine-ketamine injection (FIG. 2). […] At about the 75 minute time point, blood glucose levels gradually returned to the baseline level in a normoglycemic mouse, or about 80-100 mg/dl.

blood D-glucose = assay: Insulin eye drops with absorption enhancer in xylazine/ketamine-anesthetized hyperglycemic rats, blood D-glucose; format: in vivo, rat; conditions: for hypoglycemic effect / insulin absorption enhancement: eye drops 0.2% insulin + 0.5% enhancer; for Blood Glucose Concentrations: insulin eye drops + 0.50% dodecyl maltoside
[1] = system: Aspergillus niger (ATCC No. 16404); assay: Antimicrobial activity of alkylglycoside solutions, plate count log reduction; format: cell-based; conditions: […]
Text: (§1) 20110-2209. The viable microorganisms used in the invention were not more than five passages removed from the original ATCC culture. As described herein, one passage is defined as the transfer of organisms from an established culture to fresh medium and all transfers are counted.
(§2) Cultures received from the ATCC are resuscitated according to the directions provided by the ATTC. Cells grown in broth were pelleted by centrifugation, resuspended in 1/20th the volume of fresh maintenance broth, and combined with an equal volume of 20% (v/v in water) sterile glycerol. Cells grown on agar were scraped from the surface into the maintenance broth also containing 10% glycerol broth. Small aliquots of the suspension were dispensed into sterile vials and the vials were stored in liquid nitrogen or in a mechanical freezer at a temperature no higher than about −50° C. When a fresh seed-stock vial was required, it was removed and used to inoculate a series of working stock cultures. These working stock cultures were then used periodically (each day in the case of bacteria and yeast) to start the inoculum culture.
(§3) The culture conditions for the inoculum culture is substantially as described in Table IV. For example, suitable media can include but is not limited to, Soybean-Casein Digest or Sabouraud Dextrose Agar Medium. […]
(§4) The suspension should be refrigerated if it is not used within 2 hours. To confirm the initial cfu per mL estimate, the number of cfu per mL in each suspension was determined using the conditions of media and microbial recovery incubation times listed in Table IV (e.g., from about 3 to about 7 days). This value serves to calibrate the size of inoculum used in the test. The bacterial and yeast suspensions were used within 24 hours of harvest; whereas the fungal preparation can be stored under refrigeration for up to 7 days.
(§5) To determine which alkylglycoside formulations have antibacterial activity, the formulations were prepared in phosphate buffered saline (PBS) at pH 7. As a source of nutrition, either 1.5 mg/mL bovine serum albumin (BSA; see Tables V and VI) or 1 mg/mL of PYY was added (see Table VII) to the medium. BSA (CAS Number: 9048-46-8) was obtained from Sigma-Aldrich, St. Louis, Mo., USA, n-dodecyl-4-O-α-D-glucopyranosyl-β-D-glucopyranoside and n-tetradecyl-4-O-α-D-glucopyranosyl-β-D-glucopyranoside were obtained from Anatrace Inc., Maumee, Ohio, USA, and PYY was obtained from Bachem California Inc., Torrance, Calif., USA.
(§6) Antibacterial activity of the alkylglycosides were conducted in four sterile, capped bacteriological containers of suitable size into which a sufficient volume of alkylglycoside solution had been transferred. Each container was inoculated with one of the prepared and standardized inoculums and mixed. The volume of the suspension inoculum was between about 0.5% and about 1.0% of the volume of the alkylglycoside solution. […]. To determine the level of inhibition of growth, or reduction of growth based on a logarithmic scale, the initial concentration of viable microorganisms in each test preparation was estimated based on the concentration of microorganisms in each of the standardized inoculum as determined by the plate-count method. The inoculated containers were then incubated at about 22.5° C.±2.5. The growth or non-growth of the microorganisms in each culture/container were again determined at day 14 and day 28. The number of cfu present in each calculation was determined by the plate-count procedure standard in the art for the applicable intervals. The change in the orders of magnitude of bacterium and/or fungi was then determined by subtracting the first calculated log 10 values of the concentrations of cfu per mL present at the start or beginning (e.g., day 0), from the log 10 values of the concentration of cfu per mL for each microorganism at the applicable test intervals (e.g., day 14 and day 28; see Tables V, VI and VII).

[2] = system: Candida albicans (ATCC No. 10231); assay: as above; format: cell-based; conditions: […]
Text: as §1, §2, §3, §4, §5, §6

[3] = system: Escherichia coli (ATCC No. 8739); assay: as above; format: cell-based; conditions: […]
Text: as §1, §2, §3, §4, §5, §6

[4] = system: Staphylococcus aureus (ATCC No. 6538); assay: as above; format: cell-based; conditions: […]
Text: as §1, §2, §3, §4, §5, §6

[5] = Intranasal triptans with alkylsaccharide in rats, plasma levels by HPLC; format: in vivo;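 also: rats in groups of eight given 20 µL into one nostril, dose expressed as triptan free base, Cmax and Tmax read from plasma concentration–time curves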
Description: Each set of drug solutions is administered to six groups of eight rats each by 20 uL instillation to a single nare of each animal. […] After the last blood sample is collected each animal is cuthanizcd with CO2. After blood collection, plasma is immediately prepared from each blood sample using lithium/heparin as the anticoagulant. Plasma samples are stored at −70° C. until analyzed. […] The observed Tmax values from each plot is determined by inspection of the concentration vs time plots and recorded as shown in Table XII. The doses designated in this table reflect amounts of triptan free base in each case.

food intake = conditions: injection; less than usual, on average; cited from earlier work
[6] = whole-swallowed tablet, cited from earlier work
mucociliary surfaces = conditions: concentrations far below those used in intranasal formulations; cited from earlier work
[7] = cited from earlier work
[8] = Naratriptan 0.22 mg/kg intranasal, alkylsaccharide 0.02%
[9] = Naratriptan 0.22 mg/kg intranasal, alkylsaccharide 0.05%
[10] = Naratriptan 0.22 mg/kg intranasal, alkylsaccharide 0.1%
[11] = Naratriptan 0.22 mg/kg intranasal, alkylsaccharide 0.5%
[12] = Naratriptan 0.22 mg/kg intranasal, alkylsaccharide 2%
[13] = Sumatriptan 6.2 mg/kg intranasal, alkylsaccharide 0.02%
[14] = Sumatriptan 6.2 mg/kg intranasal, alkylsaccharide 0.05%
[15] = Sumatriptan 6.2 mg/kg intranasal, alkylsaccharide 0.1%
[16] = Sumatriptan 6.2 mg/kg intranasal, alkylsaccharide 0.5%
[17] = Sumatriptan 6.2 mg/kg intranasal, alkylsaccharide 2%

## CCCCCCCCCCCC(=O)OC[C@H]1O[C@H](O[C@]2(CO)O[C@H](CO)[C@@H](O)[C@@H]2O)[C@H](O)[C@@H](O)[C@@H]1O [sucrose dodecanoate]
Human nasal epithelium
  irritation of the nasal mucosa: no observable irritation

## insulin alone: insulin (Humalog) given intranasally without TDM
Blood glucose
  return to normoglycemic levels: never return to normoglycemic levels
  time mark at which blood glucose starts to decline: ~120 min

## CCCCCCCCCCCCO[C@@H]1O[C@H](CO)[C@@H](O[C@H]2O[C@H](CO)[C@@H](O)[C@H](O)[C@H]2O)[C@H](O)[C@H]1O [dodecyl maltoside, n-dodecyl-4-O-α-D-glucopyranosyl-β-D-glucopyranoside]
Blood D-glucose
  hypoglycemic effect / insulin absorption enhancement: equally effective
Blood D-glucose; listed as dodecyl-β3-D-maltoside
  hypoglycemic effect / insulin absorption enhancement: prompt and sustained fall in blood glucose levels
Blood D-glucose; time 0 min
  Blood Glucose Concentrations: 379 ± 4 mg/dL
Blood D-glucose; time 30 min
  Blood Glucose Concentrations: 297 ± 18 mg/dL
Blood D-glucose; time 60 min
  Blood Glucose Concentrations: 188 ± 25 mg/dL
Blood D-glucose; time 90 min
  Blood Glucose Concentrations: 141 ± 13 mg/dL
Blood D-glucose; time 120 min
  Blood Glucose Concentrations: 123 ± 5 mg/dL
Blood D-glucose; time −10 min
  Blood Glucose Concentrations: 366 ± 12 mg/dL
Blood D-glucose; time −20 min
  Blood Glucose Concentrations: 375 ± 9 mg/dL
[1]; BSA
  Log Reduction of Microorganisms, Day 14: 0.7 orders of orders of magnitude reduction
[1]; PYY
  Log Reduction, Day 14: 4.7 orders of orders of magnitude reduction
  Log Reduction, Day 28: 4.7 orders of orders of magnitude reduction
[2]; BSA
  Log Reduction of Microorganisms, Day 14: 3.0 orders of orders of magnitude reduction
  Log Reduction of Microorganisms, Day 28: ≧5.3 orders of orders of magnitude reduction
[2]; PYY
  Log Reduction, Day 14: ≧4.5 orders of orders of magnitude reduction
  Log Reduction, Day 28: ≧4.5 orders of orders of magnitude reduction
[3]; BSA
  Log Reduction of Microorganisms, Day 28: 0.1 orders of orders of magnitude reduction
[3]; PYY
  Log Reduction, Day 14: ≧5 orders of orders of magnitude reduction
  Log Reduction, Day 28: ≧5 orders of orders of magnitude reduction
[4]; BSA
  Log Reduction of Microorganisms, Day 14: ≧5.2 orders of orders of magnitude reduction
  Log Reduction of Microorganisms, Day 28: ≧5.2 orders of orders of magnitude reduction
[4]; PYY
  Log Reduction, Day 14: ≧4.9 orders of orders of magnitude reduction
  Log Reduction, Day 28: ≧4.9 orders of orders of magnitude reduction
[5]; [8]
  Ratio Cmax(alkylsacch)/Cmax(No alkylsacch): ≦1.5
  Tmax: ~60 to 120 min
[5]; [9]
  Ratio Cmax(alkylsacch)/Cmax(No alkylsacch): ≧1.5
  Tmax: ~5 to 15 min
[5]; [10]
  Ratio Cmax(alkylsacch)/Cmax(No alkylsacch): ≧1.5
  Tmax: ~5 to 15 min
[5]; [11]
  Ratio Cmax(alkylsacch)/Cmax(No alkylsacch): ≧1.5
  Tmax: ~5 to 15 min
[5]; [12]
  Ratio Cmax(alkylsacch)/Cmax(No alkylsacch): ≧1.5
  Tmax: ~5 to 15 min
[5]; Rizatriptan […] intranasal, alkylsaccharide 0.02%
  Tmax: ~60 to 120 min
[5]; Rizatriptan […] intranasal, alkylsaccharide 0.05%
  Tmax: ~5 to 15 min
[5]; Rizatriptan […] intranasal, alkylsaccharide 0.1%
  Tmax: ~5 to 15 min
[5]; Rizatriptan […] intranasal, alkylsaccharide 0.5%
  Tmax: ~5 to 15 min
[5]; Rizatriptan […] intranasal, alkylsaccharide 2%
  Tmax: ~5 to 15 min
[5]; [13]
  Ratio Cmax(alkylsacch)/Cmax(No alkylsacch): ≦1.5
  Tmax: ~60 to 120 min
[5]; [14]
  Ratio Cmax(alkylsacch)/Cmax(No alkylsacch): ≧1.5
  Tmax: ~5 to 15 min
[5]; [15]
  Ratio Cmax(alkylsacch)/Cmax(No alkylsacch): ≧1.5
  Tmax: ~5 to 15 min
[5]; [16]
  Ratio Cmax(alkylsacch)/Cmax(No alkylsacch): ≧1.5
  Tmax: ~5 to 15 min
[5]; [17]
  Ratio Cmax(alkylsacch)/Cmax(No alkylsacch): ≧1.5
  Tmax: ~5 to 15 min

## PYY: gut hormone fragment peptide PYY3-36
Food intake
  reduction of food eaten: 30%

## Cc1cc2c(s1)Nc1ccccc1N=C2N1CCN(C)CC1 [olanzapine, Olanzapine]
[6]; oral dose
  time to peak concentrations: approximately 6 hours
[6]
  dose metabolized by first pass before reaching systemic circulation: approximately 40%

## benzalkonium chloride
Mucociliary surfaces
  toxicity to mucociliary surfaces: significant disruption of the mucociliary surfaces

## COc1ccc2[nH]cc(CCNC(C)=O)c2c1 [melatonin, 5-methoxy-N-acetyltryptamine]
[7]; oral administration
  bioavailability (estimated): 30-50%
[7]; oral tablets, normal healthy volunteers, DeMuro et al. (2000)
  absolute bioavailability: approximately 15%
